The record followed here is paper PMC9921896 (Molecules, 2023).

SMILES strings stand for the structures.

One data set deals with T1, CYP2C9 (Homo sapiens, UniProt P11712).
T1 construct: Using HLM as the enzyme source; from tissue; host or cells: human liver microsomes
As to the kind of experiment: Single concentration Kobs assay (time-dependent inhibition) in HLM. In kind it is biochemical. Particulars: for Kobs 2C9: HLM, 0.02 min^−1 indicates TD inhibition potential; for Kobs 2C9 / inhibition at 30 min: single concentration; for Single concentration Kobs assay (risk bin) 2C9: TD inhibition class from Kobs vs 0.02 min^−1 (Table 5 traffic lights); for inhibition at 30 min: human, human liver microsomes, significant if >50%, read-out: 2C9 R_Inh% (reversible inhibition). An excerpt:
CYP inhibition evaluation is typically performed by either IC50 at single-point or IC50 Shift or abbreviated assay such as the first-order inactivity rate constant (K obs ) at single concentration.
This method yielded good correlations between the percent inhibition at 10 or 25 μ M and kinact/KI. Evaluation of TD inhibition at single concentration has been implemented in several drug discovery programs. […] Therefore, in this study, a single K obs approach has been utilized to understand the TD inhibition potential of TbB ligands. Ideally, the inhibition of CYPs can be reversible or irreversible. The data obtained from single-concentration K obs studies were analyzed to understand the same. From the data presented in Table 4, the TbB ligands have values less than 50% for reversible inhibition (R_Inh). As the qualified % reversible inhibition is considered significant if >50%, no significant reversible inhibition is observed for TbB ligands. Knowledge about enzyme inactivation half-life (E½) is also equally important as it would provide insight into the TD inhibition of a compound. E½ can be used to bin the compounds as positive or negative TD inhibitors if the values are <28 or >28, respectively. The TbB ligand 223-2 is observed to be a weak positive TD inhibitor of 1A2 and is negative TD inhibitor to the other six CYP isoforms.
The time-dependent inhibition (TDI) potential of test compounds against CYP1A2, 2B6, 2C8, 2C9, 2C19, 2D6, 3A4/5 isoforms were determined using Human liver microsomes. Assay is performed in 96-deep well plate format (n = 1). Positive controls and DMSO as negative control in each assay. To obtain 100 μ M working stock solution, 1 μ L of blank DMSO/test/reference compounds to 100 μ L 1× DPBS buffer was added and labeled as dilution plate. To the primary incubation plate, 45 μ L of primary mix was dispensed to the desired wells containing 25 μ L HLM, 10 μ L MgCl2, and 10 μ L of NADPH working solutions. To the secondary incubation plate, 95 μ L of secondary mix was dispensed to the desired wells containing 20 μ L MgCl2, 20 μ L NADPH, 10 μ L respective substrates for CYP isoform working solutions and 45 μ L 1× DPBS buffer. […] Pre-incubated the dilution plate along with primary incubation plate at 37 °C for 15 min at 450 rpm. The reaction was carried out in triplicate. After the incubation, the reaction was quenched by adding 150 μ L ice cold stop solution to all the wells followed by centrifuging the samples at 4000 rpm, 4 °C for 15 min. The supernatant samples were then transferred into vials for LC-MS/MS analysis. […]

In the next data set the target is T2, CYP2B6 (Homo sapiens, UniProt P20813).
T2 construct: Using HLM as the enzyme source; from tissue; host or cells: human liver microsomes
T2 sequence (P20813 1-491): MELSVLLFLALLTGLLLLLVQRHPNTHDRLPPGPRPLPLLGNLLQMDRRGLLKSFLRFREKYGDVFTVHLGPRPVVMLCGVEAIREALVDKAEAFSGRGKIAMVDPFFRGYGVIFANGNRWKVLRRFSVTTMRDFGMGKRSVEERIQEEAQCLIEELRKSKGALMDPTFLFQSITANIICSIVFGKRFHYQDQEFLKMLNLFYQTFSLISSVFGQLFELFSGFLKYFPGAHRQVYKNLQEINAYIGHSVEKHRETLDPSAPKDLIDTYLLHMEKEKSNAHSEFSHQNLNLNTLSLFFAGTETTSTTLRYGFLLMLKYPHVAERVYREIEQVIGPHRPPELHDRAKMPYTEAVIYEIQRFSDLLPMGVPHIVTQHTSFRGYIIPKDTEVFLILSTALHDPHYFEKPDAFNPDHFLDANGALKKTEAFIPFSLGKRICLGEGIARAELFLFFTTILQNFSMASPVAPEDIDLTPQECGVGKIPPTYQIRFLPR
The description is as above. In kind it is biochemical. As to conditions: human liver microsomes, significant if >50%, read-out: 2B6 R_Inh% (reversible inhibition).

Data set [1] is described as follows: Substrate depletion assay in human liver microsomes (HLM). The format is in vitro ADME. As to conditions: pooled human liver microsomes, pH 7.4, test conc. 1.0E-07 M (Table S4). Here is the method:
Microsomal stability was determined for the TbB ligands by monitoring the presence of compound after incubation in CPHH and HLM, as shown in Figure 7 and Figure S18 of the Supporting Information. […] Such an observation with NCEs is common because, with HLM, NADPH is used as a cofactor, thereby focusing mainly on phase 1 oxidation pathways such as P450 metabolism. Although additional enzymes, such as UDP-glucuronosyltransferase (UGTs), are present in HLM, the lack of the associated necessary cofactors prevents them from being functionally active (e.g., uridine diphosphate glucuronic acid (UDPGA)). In contrast, all the three TbB ligands metabolized in cryopreserved hepatocytes (Figure 7). […] The reason could be that hepatocytes have all the necessary enzymes and cofactors for the metabolic processes. Since they contain the complete set of oxidative/reductive, hydrolytic, and conjugative drug metabolizing enzymes found in the liver, they are regarded as the gold standard. Therefore, they are preferred in vitro options for expressing metabolic stability as substrate depletion, total metabolic clearance, and T 1/2 [29].
From the plot shown in Figure S18 of the Supporting Information, it can be inferred that the TbB ligands undergo slow biotransformation in HLM. Such high metabolic stability may result in drug interactions leading to toxicity of the parent compound. On the contrary, TbB ligands are undergoing rapid biotransformation in CPHH (Figure 7), and this may lead to generation of metabolites that are either toxic, active, or nonactive. Metabolic stability is typically expressed by in vitro half-life T 1/2 and intrinsic clearance (CLint) terms. Intrinsic clearance (CLint) is measured using the substrate depletion method. It describes the maximum liver (microsomal proteins or hepatocytes) activity towards a compound not affected by other physiological factors such as hepatic blood flow and drug binding within the blood matrix. T 1/2 is used to express the time for the 50% disappearance of the parent compound. A possible explanation for the difference in metabolic stability might be that the TbB ligands bind to microsomes during incubation. This can result in decreased free TbB ligand levels available to interact with metabolizing enzymes, reducing apparent intrinsic clearance values.
By preincubating a test substance for 5 minutes in phosphate buffer (pH 7.4) at 37 °C in shaking water bath, the stability of the test substance was examined in pooled HLM. After NADPH-generating systems addition, the reaction gets initiated and post incubation for 0, 15, 30, 45, and 60 min, the reaction is terminated with addition of acetonitrile/methanol to the incubation mixture. Supernatant obtained after mixing and centrifuging the sample is analyzed by HPLC-MS/MS. Microsomal protein for final use is at 0.1 mg/mL concentration. Four compounds, namely, propranolol and imipramine, known to be relatively stable, and verapamil and terfenadine, known as readily metabolizing in HLM, were included in each assay. Post HPLC-MS/MS of the samples, data are analyzed by considering test compounds peak area at each time point to time zero. Assuming the reaction to follow first-order kinetics, the slope of the initial linear range of the logarithmic curve of remaining compound (%) vs. time is considered to calculate the half-life. Additionally, the half-life is utilized to calculate the intrinsic clearance (CLint) as shown in the following equation. CLint(μL/min/mgprotein)=0.693/T1/2×proteinconc.

T1 sequence (P11712 whole entry): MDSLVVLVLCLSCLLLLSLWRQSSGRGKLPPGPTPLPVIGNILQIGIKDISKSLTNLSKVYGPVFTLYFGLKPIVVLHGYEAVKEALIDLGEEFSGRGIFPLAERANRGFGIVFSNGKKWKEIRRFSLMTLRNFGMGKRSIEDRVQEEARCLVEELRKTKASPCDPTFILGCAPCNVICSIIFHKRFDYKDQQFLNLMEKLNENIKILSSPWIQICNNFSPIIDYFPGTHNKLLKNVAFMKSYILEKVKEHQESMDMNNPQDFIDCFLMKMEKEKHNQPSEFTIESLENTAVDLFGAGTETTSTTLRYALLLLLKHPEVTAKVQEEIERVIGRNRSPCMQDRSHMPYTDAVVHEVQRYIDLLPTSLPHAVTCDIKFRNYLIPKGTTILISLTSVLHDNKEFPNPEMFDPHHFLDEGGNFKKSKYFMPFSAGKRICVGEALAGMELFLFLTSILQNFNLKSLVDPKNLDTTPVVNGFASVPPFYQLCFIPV

As to `COc1cc(-c2nnn(-c3cc(OC)c(O)c(OC)c3)n2)cc(OC)c1O` [223-2], on CYP2C9, the “Kobs 2C9” value is 0.005304 min⁻¹, the “Single concentration Kobs assay (risk bin) 2C9” value (“Single concentration Kobs assay” below) was “negative inhibitor” and the inhibition at 30 min was less than 50%. Moreover, on CYP2B6, the inhibition at 30 min is less than 50%. Besides, in data set [1], the half-life at 100 nM stood at 13.5 h and the microsomal CLint at 100 nM was less than 116 µL/min/mg.

As to `Oc1ccc(-c2nnn(-c3ccc(O)cc3)n2)cc1` [223-10], at CYP2C9, the “Single concentration Kobs assay” value is reported as “positive inhibitor” and the inhibition at 30 min is less than 50%. In addition, the inhibition at 30 min at CYP2B6 is less than 50%. In data set [1], this molecule gave a half-life at 100 nM of 3 h and a microsomal CLint at 100 nM of less than 116 µL/min/mg.

`Cc1cc(-c2nnn(-c3cc(C)c(O)c(C)c3)n2)cc(C)c1O` [223-3]: on CYP2C9, the “Kobs 2C9” value was found to be 0.0748 min⁻¹, the “Single concentration Kobs assay” value is given as “positive inhibitor” and the inhibition at 30 min was less than 50%. Also, at CYP2C9 (listed as 223-03), the “Kobs 2C9” value was determined as 0.07477 min⁻¹. Moreover, the inhibition at 30 min on CYP2B6 was less than 50%. In data set [1], this molecule showed a half-life at 100 nM of 1.25 h and a microsomal CLint at 100 nM of less than 116 µL/min/mg.
